Key:
[1] = molecular target: T1, human MetAP2 enzyme (Homo sapiens, UniProt P50579); assay: MetAP2 enzyme assay, enzyme complexed with manganese ions; conditions: MetAP2 Mn pIC50, MetAP2 enzyme complexed with manganese ions; Met-AMC substrate at Km
[2] = molecular target: T1, human MetAP2 enzyme; assay: MetAP2 enzyme assay, enzyme complexed with cobalt ions; conditions: MetAP2 Co pIC50, MetAP2 enzyme complexed with cobalt ions; Met-AMC substrate at Km

T1 sequence (P50579 whole entry): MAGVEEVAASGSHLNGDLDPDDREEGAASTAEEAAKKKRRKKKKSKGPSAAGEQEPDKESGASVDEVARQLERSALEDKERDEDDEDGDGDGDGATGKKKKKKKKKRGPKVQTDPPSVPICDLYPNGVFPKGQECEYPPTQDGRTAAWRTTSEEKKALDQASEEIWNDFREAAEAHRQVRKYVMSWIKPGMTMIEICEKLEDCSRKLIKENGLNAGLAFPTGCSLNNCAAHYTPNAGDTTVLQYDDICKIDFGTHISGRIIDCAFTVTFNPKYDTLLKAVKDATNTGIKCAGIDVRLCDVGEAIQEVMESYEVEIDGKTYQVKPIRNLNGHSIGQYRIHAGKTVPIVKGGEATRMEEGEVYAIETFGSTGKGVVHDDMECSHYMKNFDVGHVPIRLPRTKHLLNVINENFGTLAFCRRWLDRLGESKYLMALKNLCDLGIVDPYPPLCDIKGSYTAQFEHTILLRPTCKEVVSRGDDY

SMILES	IC50 [1] [nM]	IC50 [2] [nM]
O=S(=O)(CCO)c1ccccc1-c1cc(C(F)(F)F)cc2[nH]ncc12 [Example 182, 2-(2-(6-(trifluoromethyl)-1H-indazol-4-yl)phenylsulfonyl)ethanol]	25.1	794
O=S(=O)(NCCO)c1ccc(-c2cc(C(F)(F)F)cc3[nH]ncc23)cc1 [Example 224, N-(2-hydroxyethyl)-4-(6-(trifluoromethyl)-1H-indazol-4-yl)benzenesulfonamide]	2.51	39.8
FC(F)(F)c1cc(-c2cnc(N3CCCC3)nc2)c2cn[nH]c2c1 [Example 116, 4-(2-(pyrrolidin-1-yl)pyrimidin-5-yl)-6-(trifluoromethyl)-1H-indazole]	7.94	39.8
Cc1ccc(-c2cc(C(F)(F)F)cc3[nH]ncc23)c(C)n1 [Example 215, 4-(2,6-dimethylpyridin-3-yl)-6-(trifluoromethyl)-1H-indazole]	7.94	50.1
FC(F)(F)c1cc(-c2ncn3ccccc23)c2cn[nH]c2c1 [Example 154, 4-(imidazo[1,5-a]pyridin-1-yl)-6-(trifluoromethyl)-1H-indazole]	15.8	100
N#Cc1ccc2ncc(-c3cc(C(F)(F)F)cc4[nH]ncc34)n2c1 [Example 153, 3-(6-(trifluoromethyl)-1H-indazol-4-yl)imidazo[1,2-a]pyridine-6-carbonitrile]	25.1	200
COc1cccc(-c2cc(C(F)(F)F)cc3[nH]ncc23)c1OC [Example 87, 4-(2,3-dimethoxyphenyl)-6-(trifluoromethyl)-1H-indazole]	7.94	126
C[C@H](CO)Nc1ncc(-c2cc(C(F)(F)F)cc3[nH]ncc23)cn1 [Example 206, (R)-2-(5-(6-(trifluoromethyl)-1H-indazol-4-yl)pyrimidin-2-ylamino)propan-1-ol]	7.94	79.4
NC(=O)Cc1cccc(-c2cc(C(F)(F)F)cc3[nH]ncc23)c1 [Example 38, 2-(3-(6-(trifluoromethyl)-1H-indazol-4-yl)phenyl)acetamide]	10	50.1
CN(C)S(=O)(=O)c1cccc(-c2cc(C(F)(F)F)cc3[nH]ncc23)c1 [Example 108, N,N-dimethyl-3-(6-(trifluoromethyl)-1H-indazol-4-yl)benzenesulfonamide]	12.6	79.4
COc1nccc(C)c1-c1cc(C(F)(F)F)cc2[nH]ncc12 [Example 123, 4-(2-methoxy-4-methylpyridin-3-yl)-6-(trifluoromethyl)-1H-indazole]	31.6	63.1
CS(=O)(=O)Nc1ccccc1-c1cc(C(F)(F)F)cc2[nH]ncc12 [Example 44, N-(2-(6-(trifluoromethyl)-1H-indazol-4-yl)phenyl)methanesulfonamide]	5.01	50.1
OCc1cncc(-c2cc(C(F)(F)F)cc3[nH]ncc23)c1 [Example 29, (5-(6-(trifluoromethyl)-1H-indazol-4-yl)pyridin-3-yl)methanol]	6.31	79.4
Cc1nn(C)c2cc(-c3cc(C(F)(F)F)cc4[nH]ncc34)ccc12 [Example 68, 1′,3′-dimethyl-6-(trifluoromethyl)-1H,1′H-4,6′-biindazole]		25.1
Cc1c(-c2cc(C(F)(F)F)cc3[nH]ncc23)cnn1-c1ccccc1 [Example 70, 4-(5-methyl-1-phenyl-1H-pyrazol-4-yl)-6-(trifluoromethyl)-1H-indazole]		39.8
Cc1c(-c2cc(C(F)(F)F)cc3[nH]ncc23)cnn1-c1ccccc1 [Example 71, 4-(5-methyl-1-phenyl-1H-pyrazol-4-yl)-6-(trifluoromethyl)-1H-indazole]		100
Cc1nn(C)c2cc(-c3cc(C(F)(F)F)cc4[nH]ncc34)ccc12 [Example 67, 1′,3′-dimethyl-6-(trifluoromethyl)-1H,1′H-4,6′-biindazole]		20

Second part, the compound after the results:

IC50 [1] [nM]	IC50 [2] [nM]	SMILES
20	1000	CN(C)C(=O)Cn1c(=O)c(-c2cc(C(F)(F)F)cc3[nH]ncc23)cn(C)c1=O [Example 309, N,N-dimethyl-2-(3-methyl-2,6-dioxo-5-(6-(trifluoromethyl)-1H-indazol-4-yl)-2,3-dihydropyrimidin-1(6H)-yl)acetamide]
5.01	39.8	FC(F)(F)c1cc(-c2cnc3[nH]ncc3c2)c2cn[nH]c2c1 [Example 243, 5-(6-(trifluoromethyl)-1H-indazol-4-yl)-1H-pyrazolo[3,4-b]pyridine]
15.8	50.1	CNC(=O)Cn1nc(C)c(-c2cc(C(F)(F)F)cc3[nH]ncc23)c1C [Example 367, 2-(3,5-dimethyl-4-(6-(trifluoromethyl)-1H-indazol-4-yl)-1H-pyrazol-1-yl)-N-methylacetamide]
3.98	50.1	COc1ncc(-c2cc(C(F)(F)F)cc3[nH]ncc23)cc1C(=O)NCCO [Example 285, N-(2-hydroxyethyl)-2-methoxy-5-(6-(trifluoromethyl)-1H-indazol-4-yl)nicotinamide]
12.6	398	Cn1cc(-c2cc(C(F)(F)F)cc3[nH]ncc23)c(=O)n(CC(N)=O)c1=O [Example 300, 2-(3-methyl-2,6-dioxo-5-(6-(trifluoromethyl)-1H-indazol-4-yl)-2,3-dihydropyrimidin-1(6H)-yl)acetamide]
10	63.1	COc1ncc(-c2cc(C(F)(F)F)cc3[nH]ncc23)c2cc[nH]c12 [Example 291, 4-(7-methoxy-1H-pyrrolo[2,3-c]pyridin-4-yl)-6-(trifluoromethyl)-1H-indazole]
20	39.8	Cc1nn(CC(=O)NC(C)C)c(C)c1-c1cc(C(F)(F)F)cc2[nH]ncc12 [Example 352, 2-(3,5-dimethyl-4-(6-(trifluoromethyl)-1H-indazol-4-yl)-1H-pyrazol-1-yl)-N-isopropylacetamide]
3.98	63.1	CN1CCN(C(=O)c2cncc(-c3cc(C(F)(F)F)cc4[nH]ncc34)c2)CC1 [Example 287, (4-methylpiperazin-1-yl)(5-(6-(trifluoromethyl)-1H-indazol-4-yl)pyridin-3-yl)methanone]
7.94	31.6	Cc1nc(NS(=O)(=O)c2cnn(C)c2)ccc1-c1cc(C(F)(F)F)cc2[nH]ncc12 [Example 259, 1-methyl-N-(6-methyl-5-(6-(trifluoromethyl)-1H-indazol-4-yl)pyridin-2-yl)-1H-pyrazole-4-sulfonamide]
5.01	20	Cc1nc(-n2cnnc2)ccc1-c1cc(C(F)(F)F)cc2[nH]ncc12 [Example 383, 4-(2-methyl-6-(4H-1,2,4-triazol-4-yl)pyridin-3-yl)-6-(trifluoromethyl)-1H-indazole]
25.1	1580	Cn1cc(-c2cc(C(F)(F)F)cc3[nH]ncc23)c(=O)n(CCN2CCOCC2)c1=O [Example 313, 1-methyl-3-(2-morpholinoethyl)-5-(6-(trifluoromethyl)-1H-indazol-4-yl)pyrimidine-2,4(1H,3H)-dione]
7.94	63.1	FC(F)(F)c1cc(-c2ccc(OCCN3CCOCC3)cc2)c2cn[nH]c2c1 [Example 281, 4-(2-(4-(6-(trifluoromethyl)-1H-indazol-4-yl)phenoxy)ethyl)morpholine]

Source: patent US9434743B2, “Indazole derivatives” (TAKEDA PHARMACEUTICAL COMPANY LIMITED, priority 2012, dated 2016)
